{
  "source": "paper PMC5218480",
  "about": "(PLoS ONE, 2017)",
  "test_system": "MV-4-11 cells",
  "assay": "Gene expression microarray analysis (Affymetrix PrimeView) and GSEA",
  "format": "cell-based, human",
  "design": "RFU PODN (11730768_x_at) / Fold change /veh PODN (11730768_x_at) / RFU LINC00158 (11744669_a_at) / Fold change /veh LINC00158 (11744669_a_at) / RFU DUSP10 (11751237_a_at) / Fold change /veh DUSP10 (11751237_a_at) / RFU ID3 (11757404_x_at) / Fold change /veh ID3 (11757404_x_at) / RFU PLEKHG5 (11737974_s_at) / Fold change /veh PLEKHG5 (11737974_s_at) / RFU LRRC4B (11730491_at) / Fold change /veh LRRC4B (11730491_at) / RFU GIMAP4 (11747438_a_at) / Fold change /veh GIMAP4 (11747438_a_at) / RFU KRT8 (11758183_x_at) / Fold change /veh KRT8 (11758183_x_at) / RFU CNN1 (11734310_a_at) / Fold change /veh CNN1 (11734310_a_at) / RFU VPS37D (11726825_at) / Fold change /veh VPS37D (11726825_at) / RFU C10orf10 (11716522_x_at) / Fold change /veh C10orf10 (11716522_x_at) / RFU KIR2DL2 /// KIR2DL4 /// KIR2DL5A /// KIR2DL5B /// KIR2DS1 /// KIR2DS2 /// KIR2DS3 /// KIR2DS4 /// KIR3DL3 /// KIR3DL3 /// KIR3DS1 (11738374_at) / Fold change /veh KIR2DL2 /// KIR2DL4 /// KIR2DL5A /// KIR2DL5B /// KIR2DS1 /// KIR2DS2 /// KIR2DS3 /// KIR2DS4 /// KIR3DL3 /// KIR3DL3 /// KIR3DS1 (11738374_at) / RFU C1QL1 (11718748_at) / Fold change /veh C1QL1 (11718748_at) / RFU TMPRSS4 (11747572_a_at) / Fold change /veh TMPRSS4 (11747572_a_at) / RFU HAMP (11756126_x_at) / Fold change /veh HAMP (11756126_x_at) / RFU RNFT2 (11725882_a_at) / Fold change /veh RNFT2 (11725882_a_at) / RFU NR4A2 (11747474_a_at) / Fold change /veh NR4A2 (11747474_a_at) / RFU ABCC12 (11746883_a_at) / Fold change /veh ABCC12 (11746883_a_at) / RFU TMEM136 (11760407_x_at) / Fold change /veh TMEM136 (11760407_x_at) / RFU CLDN22 /// WWC2 (11732394_at) / Fold change /veh CLDN22 /// WWC2 (11732394_at) / RFU HLA-DPB1 (11760878_x_at) / Fold change /veh HLA-DPB1 (11760878_x_at) / RFU SPINT1 (11716480_a_at) / Fold change /veh SPINT1 (11716480_a_at) / RFU GAP43 (11754022_s_at) / Fold change /veh GAP43 (11754022_s_at) / RFU A4GNT (11735810_at) / Fold change /veh A4GNT (11735810_at) / RFU PRB3 (11715151_x_at) / Fold change /veh PRB3 (11715151_x_at) / RFU TUBB4B (11761932_at) / Fold change /veh TUBB4B (11761932_at) / RFU CAPN14 (11732068_a_at) / Fold change /veh CAPN14 (11732068_a_at) / RFU TMCC2 (11721928_a_at) / Fold change /veh TMCC2 (11721928_a_at) / RFU IRGQ (11745062_a_at) / Fold change /veh IRGQ (11745062_a_at) / RFU FAM174B (11720279_a_at) / Fold change /veh FAM174B (11720279_a_at) / RFU TMPRSS4 (11748680_a_at) / Fold change /veh TMPRSS4 (11748680_a_at) / RFU FAM212B (11763350_a_at) / Fold change /veh FAM212B (11763350_a_at) / RFU PLEKHG5 (11743358_a_at) / Fold change /veh PLEKHG5 (11743358_a_at) / RFU ZSCAN30 (11745921_a_at) / Fold change /veh ZSCAN30 (11745921_a_at) / RFU CMKLR1 (11741424_a_at) / Fold change /veh CMKLR1 (11741424_a_at) / RFU LOC101060620 /// MAPK8IP1 (11723275_at) / Fold change /veh LOC101060620 /// MAPK8IP1 (11723275_at) / RFU SPTSSB (11747773_x_at) / Fold change /veh SPTSSB (11747773_x_at) / RFU PRSS12 (11739890_at) / Fold change /veh PRSS12 (11739890_at) / RFU BIN1 (11741810_x_at) / Fold change /veh BIN1 (11741810_x_at) / RFU WNT11 (11732464_a_at) / Fold change /veh WNT11 (11732464_a_at) / RFU C10orf10 (11716521_a_at) / Fold change /veh C10orf10 (11716521_a_at) / RFU C5orf56 (11738089_at) / Fold change /veh C5orf56 (11738089_at) / RFU CYB561 (11721691_x_at) / Fold change /veh CYB561 (11721691_x_at) / RFU ANKRD19P (11752326_a_at) / Fold change /veh ANKRD19P (11752326_a_at) / RFU OR2T12 /// OR2T33 /// OR2T8 (11738714_s_at) / Fold change /veh OR2T12 /// OR2T33 /// OR2T8 (11738714_s_at) / RFU VCAN (11748164_a_at) / Fold change /veh VCAN (11748164_a_at) / RFU JSRP1 (11732532_at) / Fold change /veh JSRP1 (11732532_at) / RFU KRTAP10-11 (11738290_x_at) / Fold change /veh KRTAP10-11 (11738290_x_at) / RFU MYO3A (11730013_a_at) / Fold change /veh MYO3A (11730013_a_at) / RFU EBF3 (11725865_a_at) / Fold change /veh EBF3 (11725865_a_at) / RFU CAMK2N1 (11719241_x_at) / Fold change /veh CAMK2N1 (11719241_x_at) / RFU C5orf56 (11738088_a_at) / Fold change /veh C5orf56 (11738088_a_at) / RFU OLFML3 (11715873_a_at) / Fold change /veh OLFML3 (11715873_a_at) / RFU LOC100653217 /// NTM (11731650_a_at) / Fold change /veh LOC100653217 /// NTM (11731650_a_at) / RFU MAPK11 (11762145_a_at) / Fold change /veh MAPK11 (11762145_a_at) / RFU FIZ1 (11724087_x_at) / Fold change /veh FIZ1 (11724087_x_at) / RFU OASL (11726364_x_at) / Fold change /veh OASL (11726364_x_at) / RFU SOX15 (11748057_x_at) / Fold change /veh SOX15 (11748057_x_at) / RFU CD79A (11719716_a_at) / Fold change /veh CD79A (11719716_a_at) / RFU HIST1H1D (11736915_at) / Fold change /veh HIST1H1D (11736915_at) / RFU CASKIN2 (11723855_a_at) / Fold change /veh CASKIN2 (11723855_a_at) / RFU LOC730098 (11760151_x_at) / Fold change /veh LOC730098 (11760151_x_at) / RFU OR4N2 (11742367_at) / Fold change /veh OR4N2 (11742367_at) / RFU PRRT2 (11749266_a_at) / Fold change /veh PRRT2 (11749266_a_at) / RFU SNX32 (11753110_a_at) / Fold change /veh SNX32 (11753110_a_at) / RFU CDHR5 (11726645_a_at) / Fold change /veh CDHR5 (11726645_a_at) / RFU RCAN1 (11760418_a_at) / Fold change /veh RCAN1 (11760418_a_at) / RFU FAM167A (11723789_a_at) / Fold change /veh FAM167A (11723789_a_at) / RFU FAM26E (11764081_at) / Fold change /veh FAM26E (11764081_at) / RFU ISYNA1 (11749810_s_at) / Fold change /veh ISYNA1 (11749810_s_at) / RFU ACY1 (11761880_at) / Fold change /veh ACY1 (11761880_at) / RFU 11764098_at / Fold change /veh 11764098_at / RFU SAMD14 (11745864_x_at) / Fold change /veh SAMD14 (11745864_x_at) / RFU NPB (11741838_a_at) / Fold change /veh NPB (11741838_a_at) / RFU TMPRSS6 (11731388_a_at) / Fold change /veh TMPRSS6 (11731388_a_at) / RFU KRTAP10-2 (11738614_at) / Fold change /veh KRTAP10-2 (11738614_at) / RFU ARHGAP8 /// PRR5-ARHGAP8 (11727945_x_at) / Fold change /veh ARHGAP8 /// PRR5-ARHGAP8 (11727945_x_at) / RFU KRTAP5-7 /// NADSYN1 (11734609_at) / Fold change /veh KRTAP5-7 /// NADSYN1 (11734609_at) / RFU RASL12 (11751679_a_at) / Fold change /veh RASL12 (11751679_a_at) / RFU CDKN2B (11736163_a_at) / Fold change /veh CDKN2B (11736163_a_at) / RFU PRF1 (11729649_at) / Fold change /veh PRF1 (11729649_at) / RFU, ZNF638 /// ZNF638-IT1 / Fold change vs veh, ZNF638 /// ZNF638-IT1 / RFU, PANK3 / Fold change vs veh, PANK3 / RFU, SH3YL1 / Fold change vs veh, SH3YL1 / RFU, ZEB2 / Fold change vs veh, ZEB2 / RFU, NRIP1 / Fold change vs veh, NRIP1 / RFU, PTTG1IP / Fold change vs veh, PTTG1IP / RFU, CAPN2 / Fold change vs veh, CAPN2 / RFU, MED14 / Fold change vs veh, MED14 / RFU, SNORA58 / Fold change vs veh, SNORA58 / RFU, C1orf63 / Fold change vs veh, C1orf63 / RFU, LRRFIP1 / Fold change vs veh, LRRFIP1 / RFU, NDUFAF7 / Fold change vs veh, NDUFAF7 / RFU, SLC12A2 / Fold change vs veh, SLC12A2 / RFU, IBTK / Fold change vs veh, IBTK / RFU, ESF1 / Fold change vs veh, ESF1 / Fold change vs veh, TMEM50B / RFU, TAOK1 / Fold change vs veh, TAOK1 / RFU, ACBD3 / Fold change vs veh, ACBD3 / RFU, TMA16 / Fold change vs veh, TMA16 / RFU, RWDD3 / Fold change vs veh, RWDD3 / RFU, BCAT1 / Fold change vs veh, BCAT1 / RFU, EDEM3 / Fold change vs veh, EDEM3 / RFU, TMEM33 / Fold change vs veh, TMEM33 / RFU, WDR75 / Fold change vs veh, WDR75 / RFU, AHCTF1 / Fold change vs veh, AHCTF1 / RFU, TFRC / Fold change vs veh, TFRC / RFU, ZDHHC17 / Fold change vs veh, ZDHHC17 / RFU, NOM1 / Fold change vs veh, NOM1 / RFU, ARL8B / Fold change vs veh, ARL8B / RFU, ZBTB11 / Fold change vs veh, ZBTB11 / RFU, TAMM41 / Fold change vs veh, TAMM41 / RFU, KIAA1704 /// LOC100996395 / Fold change vs veh, KIAA1704 /// LOC100996395 / RFU, ING1 / Fold change vs veh, ING1 / RFU, TRMT61B / Fold change vs veh, TRMT61B / RFU, FUBP3 / Fold change vs veh, FUBP3 / RFU, TP53 / Fold change vs veh, TP53 / RFU, TNKS2 / Fold change vs veh, TNKS2 / RFU, ZFP14 / Fold change vs veh, ZFP14 / RFU, ACTR2 / Fold change vs veh, ACTR2 / RFU, PPP3R1 / Fold change vs veh, PPP3R1 / RFU, PIK3R1 / Fold change vs veh, PIK3R1 / RFU, HNRNPA1 / Fold change vs veh, HNRNPA1 / RFU, RNF170 / Fold change vs veh, RNF170 / RFU, ZNF28 / Fold change vs veh, ZNF28 / RFU, RNGTT / Fold change vs veh, RNGTT / RFU, OGT / Fold change vs veh, OGT / RFU, BRD1 / Fold change vs veh, BRD1 / RFU, MARS / Fold change vs veh, MARS / RFU, ZNF655 / Fold change vs veh, ZNF655 / RFU, FAHD1 / Fold change vs veh, FAHD1 / RFU, BDP1 / Fold change vs veh, BDP1 / RFU, LRRCC1 / Fold change vs veh, LRRCC1 / RFU, ARID1A / Fold change vs veh, ARID1A / RFU, ZNF146 / Fold change vs veh, ZNF146 / RFU, ZNF330 / Fold change vs veh, ZNF330 / RFU, GPN3 / Fold change vs veh, GPN3 / RFU, C9orf123 / Fold change vs veh, C9orf123 / RFU, N4BP2L2 / Fold change vs veh, N4BP2L2 / RFU, ARFIP1 / Fold change vs veh, ARFIP1 / RFU, FAM179B / Fold change vs veh, FAM179B / RFU, BCL10 / Fold change vs veh, BCL10 / RFU, UHRF1BP1L / Fold change vs veh, UHRF1BP1L / RFU, BET1 / Fold change vs veh, BET1 / RFU, CNOT2 / Fold change vs veh, CNOT2 / RFU, ZNF268 / Fold change vs veh, ZNF268 / Fold change vs veh, ZNF507 / RFU, DGCR2 / Fold change vs veh, DGCR2 / RFU, WDSUB1 / Fold change vs veh, WDSUB1 / Fold change vs veh, HSP90B1 /// MIR3652 / RFU, ADSS / Fold change vs veh, ADSS / RFU, GK / Fold change vs veh, GK / RFU, ZNF148 / Fold change vs veh, ZNF148 / RFU, TAF9 / Fold change vs veh, TAF9 / RFU, SLC1A5 / Fold change vs veh, SLC1A5 / RFU, SLMO2 / Fold change vs veh, SLMO2 / RFU, ABCC4 / Fold change vs veh, ABCC4 / RFU, LOC101060439 /// RAP1B / Fold change vs veh, LOC101060439 /// RAP1B / RFU, RFX7 / Fold change vs veh, RFX7 / RFU, GTPBP10 / Fold change vs veh, GTPBP10 / RFU, CNEP1R1 / Fold change vs veh, CNEP1R1 / RFU, BIVM-ERCC5 /// ERCC5 / Fold change vs veh, BIVM-ERCC5 /// ERCC5 / RFU, ILF3 / Fold change vs veh, ILF3 / RFU 11762660_at / Fold change /veh 11762660_at / RFU VCAN (11757783_s_at) / Fold change /veh VCAN (11757783_s_at) / RFU DDX43 (11728927_at) / Fold change /veh DDX43 (11728927_at) / RFU KRT8 (11758188_x_at) / Fold change /veh KRT8 (11758188_x_at) / RFU NKD1 (11759106_at) / Fold change /veh NKD1 (11759106_at) / RFU SRD5A1 (11742802_a_at) / Fold change /veh SRD5A1 (11742802_a_at) / RFU TPSAB1 /// TPSB2 (11721975_s_at) / Fold change /veh TPSAB1 /// TPSB2 (11721975_s_at) / RFU GSTM3 (11746129_a_at) / Fold change /veh GSTM3 (11746129_a_at) / RFU IL23R (11737362_x_at) / Fold change /veh IL23R (11737362_x_at) / RFU TMEM51 (11727254_a_at) / Fold change /veh TMEM51 (11727254_a_at) / RFU PIWIL2 (11732686_x_at) / Fold change /veh PIWIL2 (11732686_x_at) / RFU ORM1 (11744905_x_at) / Fold change /veh ORM1 (11744905_x_at) / RFU CCDC152 (11743942_at) / Fold change /veh CCDC152 (11743942_at) / RFU ECM1 (11717891_a_at) / Fold change /veh ECM1 (11717891_a_at) / RFU IL23R (11748794_a_at) / Fold change /veh IL23R (11748794_a_at) / RFU TNFAIP8L3 (11732012_x_at) / Fold change /veh TNFAIP8L3 (11732012_x_at) / RFU MBOAT4 (11741988_at) / Fold change /veh MBOAT4 (11741988_at) / RFU 11764193_at / Fold change /veh 11764193_at / RFU TMEM53 (11763286_at) / Fold change /veh TMEM53 (11763286_at) / RFU MAGEB2 (11727129_at) / Fold change /veh MAGEB2 (11727129_at) / RFU TMEM200A (11744735_a_at) / Fold change /veh TMEM200A (11744735_a_at) / RFU CCDC152 (11751479_a_at) / Fold change /veh CCDC152 (11751479_a_at) / RFU FAM211A (11726209_a_at) / Fold change /veh FAM211A (11726209_a_at) / RFU RGS16 (11746705_a_at) / Fold change /veh RGS16 (11746705_a_at) / RFU VCAN (11755009_s_at) / Fold change /veh VCAN (11755009_s_at) / RFU RHOB (11743442_s_at) / Fold change /veh RHOB (11743442_s_at) / RFU RGS16 (11720943_a_at) / Fold change /veh RGS16 (11720943_a_at) / RFU RGS16 (11720944_at) / Fold change /veh RGS16 (11720944_at) / RFU, VPS4B / Fold change vs veh, VPS4B / RFU, CREB1 / Fold change vs veh, CREB1 / RFU, DNAJC13 / Fold change vs veh, DNAJC13 / RFU, GNAQ / Fold change vs veh, GNAQ / RFU, CDK5R1 / Fold change vs veh, CDK5R1 / RFU, ZRANB3 / Fold change vs veh, ZRANB3 / RFU, CUL4A / Fold change vs veh, CUL4A / RFU, CCNY / Fold change vs veh, CCNY / RFU, UFL1 / Fold change vs veh, UFL1 / RFU, COG3 / Fold change vs veh, COG3 / RFU, DIAPH2 / Fold change vs veh, DIAPH2 / RFU, SKA2 / Fold change vs veh, SKA2 / RFU, AFF3 / Fold change vs veh, AFF3 / RFU, LMF1 / Fold change vs veh, LMF1 / RFU, IPO11 / Fold change vs veh, IPO11 / RFU, DFFB / Fold change vs veh, DFFB / RFU, FOXP1 / Fold change vs veh, FOXP1 / RFU, CARD8 / Fold change vs veh, CARD8 / RFU, STRN3 / Fold change vs veh, STRN3 / RFU, ADK / Fold change vs veh, ADK / RFU, RASSF2 / Fold change vs veh, RASSF2 / RFU, WIPF1 / Fold change vs veh, WIPF1 / RFU, LARP1B / Fold change vs veh, LARP1B / RFU, RASA1 / Fold change vs veh, RASA1 / RFU, RB1 / Fold change vs veh, RB1 / RFU, PPFIA1 / Fold change vs veh, PPFIA1 / RFU, MAT2A / Fold change vs veh, MAT2A / RFU, CCT5 / Fold change vs veh, CCT5 / RFU, WDR92 / Fold change vs veh, WDR92 / RFU, CUX1 / Fold change vs veh, CUX1 / RFU, TTC7A / Fold change vs veh, TTC7A / RFU, TMEM135 / Fold change vs veh, TMEM135 / RFU, DEPTOR / Fold change vs veh, DEPTOR / RFU, CPM / Fold change vs veh, CPM / RFU, DNAJB6 / Fold change vs veh, DNAJB6 / RFU, CACNA2D3 / Fold change vs veh, CACNA2D3 / RFU, DTX4 / Fold change vs veh, DTX4 / RFU, TFCP2 / Fold change vs veh, TFCP2 / RFU, GMCL1 /// GMCL1P1 / Fold change vs veh, GMCL1 /// GMCL1P1 / RFU, AEBP2 / Fold change vs veh, AEBP2 / RFU, SNHG1 /// SNORD22 /// SNORD25 /// SNORD26 /// SNORD27 /// SNORD28 /// SNORD29 /// SNORD31 / Fold change vs veh, SNHG1 /// SNORD22 /// SNORD25 /// SNORD26 /// SNORD27 /// SNORD28 /// SNORD29 /// SNORD31 / Fold change (Aza/veh), C12orf56 (ProbeSet 11735607_a_at) / Fold change (ACY-1035/veh), C12orf56 (ProbeSet 11735607_a_at) / Fold change (Aza/veh), FGFR1OP (ProbeSet 11751329_s_at) / Fold change (ACY-1035/veh), FGFR1OP (ProbeSet 11751329_s_at) / Fold change (Aza/veh), VPS36 (ProbeSet 11739960_a_at) / Fold change (ACY-1035/veh), VPS36 (ProbeSet 11739960_a_at) / RFU SYPL1 (11715823_x_at) / Fold change /veh SYPL1 (11715823_x_at) / RFU IGFBP7 (11715501_s_at) / Fold change /veh IGFBP7 (11715501_s_at) / RFU REEP3 (11722064_at) / Fold change /veh REEP3 (11722064_at) / RFU IGLL1 (11728026_x_at) / Fold change /veh IGLL1 (11728026_x_at): dose or concentration left out as unconfirmed",
  "details": "ProbeSet 11733831_s_at; LIST D",
  "data": [
    {"smiles": "Nc1ncn([C@@H]2O[C@H](CO)[C@@H](O)[C@H]2O)c(=O)n1", "note": "[azacitidine]", "values": [
      {"measurement": "RFU, GMCL1 /// GMCL1P1", "result": 32.38, "unit": "RFU"}
    ]}
  ]
}
